Results from ChEMBL document CHEMBL1201862, “PubChem BioAssay data set” (2004).
Calls of active or inactive are those of the source.

What was measured:
Cytochrome P450 3A4 = Cytochrome P450 3A4 (Homo sapiens, UniProt P08684);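 note: CYP3A4 tested as one member of a cytochrome P450 panel screen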
Cytochrome P450 2C19 = Cytochrome P450 2C19 (Homo sapiens, UniProt P33261); test: Cytochrome panel assay with activity outcomes. Panel member name: p450-cyp2c19 Compounds with AC50 equal or less than 10 uM are considered active; type: functional
[1] = Trypanosoma cruzi growth suppression in host cells – NIH3T3 host cells, beta-gal luminescence, confirmation (AID 2044); type: functional, cell-based;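 note: intracellular parasites grown in NIH/3T3 mouse fibroblasts as host cells; luminescent beta-galactosidase reporter signal from transgenic T. cruzi replicating inside host cells; inhibitors lower the luminescence signal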
[2] = NIH3T3 cell viability loss – ATP luminescence, mouse fibroblasts, counter-screen, dose response (AID 2010); type: functional, cell-based;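 note: cells exposed to compound for about 90 hours before reading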
[3] = biological target: T1, Corticotropin-releasing factor receptor 2/Corticotropin-releasing factor-binding protein (Homo sapiens, UniProt P24387+Q13324); test: activators of CRF receptor 2 with binding protein – uHTS hits, confirmation (AID 602473); type: functional; settings: read-out: EC50_Mean
T1 sequence (Q13324 whole entry): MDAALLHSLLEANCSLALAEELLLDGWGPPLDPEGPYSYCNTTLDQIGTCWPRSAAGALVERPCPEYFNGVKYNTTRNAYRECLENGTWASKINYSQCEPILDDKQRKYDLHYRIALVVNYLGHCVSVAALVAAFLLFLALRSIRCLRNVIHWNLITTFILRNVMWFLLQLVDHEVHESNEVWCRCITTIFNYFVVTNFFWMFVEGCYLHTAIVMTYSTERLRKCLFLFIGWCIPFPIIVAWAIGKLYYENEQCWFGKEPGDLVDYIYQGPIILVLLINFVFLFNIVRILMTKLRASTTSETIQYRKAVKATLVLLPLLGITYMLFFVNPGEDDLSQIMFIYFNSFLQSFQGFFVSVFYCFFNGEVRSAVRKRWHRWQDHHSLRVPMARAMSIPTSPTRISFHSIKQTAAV
T1 sequence (P24387 whole entry): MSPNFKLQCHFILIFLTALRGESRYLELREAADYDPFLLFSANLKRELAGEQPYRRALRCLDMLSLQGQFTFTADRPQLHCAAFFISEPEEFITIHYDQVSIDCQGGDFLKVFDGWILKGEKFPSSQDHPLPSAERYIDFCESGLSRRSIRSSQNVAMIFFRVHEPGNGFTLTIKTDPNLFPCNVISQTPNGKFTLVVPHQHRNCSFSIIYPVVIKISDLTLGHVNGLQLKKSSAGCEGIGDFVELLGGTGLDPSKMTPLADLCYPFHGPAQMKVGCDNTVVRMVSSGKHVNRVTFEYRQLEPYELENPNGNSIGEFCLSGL

Streptococcus = test: GAS UMAA2166 growth inhibition – luminescence, BacTiterGlo, counter-screen for streptokinase expression inhibitor project, dose response (AID 1915); type: functional, organism-based;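 note: potency for reduction of bacterial viability or growth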
[4] = test system: Streptococcus sp. 'group A'; test: Streptococcus pyogenes SK(-)GAS viability under kanamycin – luminescence, BacTiterGlo, confirmation, counter-screen for streptokinase expression inhibitor project, dose response (AID 1900); type: functional, organism-based
Streptokinase A = biological target: T2, Streptokinase A (Streptococcus pyogenes serotype M1, UniProt P10520); test: viability-normalized secreted streptokinase activity reduction – plasminogen activation absorbance, OD405, dose response (AID 1914); type: functional, Streptococcus pyogenes M1 GAS;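 note: secreted streptokinase activity via plasminogen activation per viability signal from cell pellet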
T2 sequence (P10520 whole entry): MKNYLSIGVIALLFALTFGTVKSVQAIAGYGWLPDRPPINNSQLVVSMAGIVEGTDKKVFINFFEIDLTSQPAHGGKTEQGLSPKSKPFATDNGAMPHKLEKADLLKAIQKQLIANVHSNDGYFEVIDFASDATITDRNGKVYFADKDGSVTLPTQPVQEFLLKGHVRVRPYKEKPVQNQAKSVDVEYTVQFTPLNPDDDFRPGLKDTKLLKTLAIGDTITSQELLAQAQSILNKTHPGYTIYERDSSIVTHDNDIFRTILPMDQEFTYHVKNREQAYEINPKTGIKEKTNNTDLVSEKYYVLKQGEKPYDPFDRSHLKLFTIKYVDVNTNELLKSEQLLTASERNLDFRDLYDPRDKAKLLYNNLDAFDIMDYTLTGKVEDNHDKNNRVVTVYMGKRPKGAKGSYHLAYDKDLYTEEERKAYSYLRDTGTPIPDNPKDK

Cytochrome P450 2C9 = Cytochrome P450 2C9 (Homo sapiens, UniProt P11712)
Chain of Cytochrome P450 2C9 (P11712 whole entry): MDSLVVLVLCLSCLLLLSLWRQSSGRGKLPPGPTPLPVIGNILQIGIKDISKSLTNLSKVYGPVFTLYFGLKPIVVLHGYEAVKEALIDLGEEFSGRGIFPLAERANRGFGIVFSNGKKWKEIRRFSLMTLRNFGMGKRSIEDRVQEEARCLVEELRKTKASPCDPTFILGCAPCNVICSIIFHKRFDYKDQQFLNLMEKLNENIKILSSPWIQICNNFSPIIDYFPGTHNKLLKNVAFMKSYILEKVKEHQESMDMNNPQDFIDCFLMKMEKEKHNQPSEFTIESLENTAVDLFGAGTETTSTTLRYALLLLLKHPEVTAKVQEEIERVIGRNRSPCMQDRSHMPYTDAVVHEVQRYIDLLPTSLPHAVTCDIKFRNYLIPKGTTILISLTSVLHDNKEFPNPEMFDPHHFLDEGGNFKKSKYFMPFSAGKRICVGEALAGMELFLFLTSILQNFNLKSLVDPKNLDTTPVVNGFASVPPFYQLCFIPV

Chain of Cytochrome P450 2C19 (P33261 whole entry): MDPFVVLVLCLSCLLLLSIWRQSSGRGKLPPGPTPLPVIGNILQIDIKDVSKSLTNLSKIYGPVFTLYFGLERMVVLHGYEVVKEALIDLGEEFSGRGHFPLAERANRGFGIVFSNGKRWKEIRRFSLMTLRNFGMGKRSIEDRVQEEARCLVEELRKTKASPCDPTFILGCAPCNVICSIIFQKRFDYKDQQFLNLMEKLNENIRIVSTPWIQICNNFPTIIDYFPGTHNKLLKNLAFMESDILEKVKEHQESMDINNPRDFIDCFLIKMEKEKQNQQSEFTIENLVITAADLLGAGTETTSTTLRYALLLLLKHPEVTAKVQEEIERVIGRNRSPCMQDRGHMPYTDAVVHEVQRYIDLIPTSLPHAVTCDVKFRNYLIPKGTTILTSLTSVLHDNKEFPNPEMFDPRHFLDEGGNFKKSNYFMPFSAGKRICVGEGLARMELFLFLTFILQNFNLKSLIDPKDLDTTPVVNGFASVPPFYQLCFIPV
Chain of Cytochrome P450 3A4 (P08684 whole entry): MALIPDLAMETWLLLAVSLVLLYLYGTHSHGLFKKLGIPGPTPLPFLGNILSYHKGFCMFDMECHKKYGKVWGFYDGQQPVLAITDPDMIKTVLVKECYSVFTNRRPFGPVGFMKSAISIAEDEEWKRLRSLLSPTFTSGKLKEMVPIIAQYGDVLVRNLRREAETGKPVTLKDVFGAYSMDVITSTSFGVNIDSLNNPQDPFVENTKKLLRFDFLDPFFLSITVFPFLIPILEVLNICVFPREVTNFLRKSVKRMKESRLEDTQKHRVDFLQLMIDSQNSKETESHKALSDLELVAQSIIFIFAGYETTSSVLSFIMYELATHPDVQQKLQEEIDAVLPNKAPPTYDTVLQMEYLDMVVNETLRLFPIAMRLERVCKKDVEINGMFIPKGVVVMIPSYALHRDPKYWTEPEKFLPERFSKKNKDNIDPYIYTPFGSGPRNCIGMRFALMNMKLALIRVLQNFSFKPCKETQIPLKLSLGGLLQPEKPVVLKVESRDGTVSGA

COc1cc(N)c(Cl)cc1C(=O)CCC1CCN(CCNS(C)(=O)=O)CC1
AC50 (Cytochrome P450 3A4): 15.8 µM (inconclusive)

O=C(CCCCCn1c(=S)[nH]c2cc3c(cc2c1=O)OCO3)N1CCN(C2CCCCC2)CC1
AC50 (Cytochrome P450 2C19; read-out: AC50): 7.08 µM (inconclusive)

CCCCN=C(S)N1CCn2cccc2C1c1cccnc1 (stereo not drawn)
EC50 [1]: 1.77 µM (active) | EC50 [2]: > 60 µM (inconclusive)

Cc1nc(Nc2ccc(S(=O)(=O)N3CCCCC3C)cc2)c2nnn(Cc3ccccc3)c2n1 (stereo not drawn)
EC50 [1]: 1.92 µM (active) | EC50 [2]: > 60 µM (not active)

O=C(C/C=N/OCc1ccc(F)cc1Cl)c1cnc(-c2ccccc2)s1
AC50 (Cytochrome P450 3A4): 14.1 µM (inconclusive)

CCC1CCCCN1C(=O)COC(=O)COc1ccc(Br)cc1 (stereo not drawn)
EC50 [3]: > 53 µM (inactive)

OCCNc1ncnc2nc[nH]c12
AC50 (Cytochrome P450 3A4): 0.251 µM (inconclusive)

CCOc1ccc(Br)cc1C1C(C(=O)OC)=C(N)Oc2cc(N(C)C)ccc21 (stereo not drawn)
EC50 [1]: 0.826 µM (active) | EC50 [2]: 8.1 µM (active)

Cc1ccc(NC(=S)/N=C(\N)Nc2nc(C)c3cc(C)c(C)cc3n2)cc1C
EC50 [1]: 1.98 µM (active)

COc1ccccc1NC(=O)N1CCCC1C(=O)NCc1ccc2c(c1)OCO2 (stereo not drawn)
AC50 (Cytochrome P450 2C19; read-out: AC50): 28.2 µM (inconclusive)

N#Cc1cccc(-c2nc3cnc(N4CCNCC4)nc3n(C3CC3)c2=O)c1
AC50 (Cytochrome P450 3A4): 20 µM (inconclusive)

Cc1cc(Oc2ccc(Cl)cc2)nc(-c2ccccc2O)n1
EC50 (Streptococcus): > 150 µM (not active) | EC50 [4]: > 150 µM (not active) | EC50 (Streptokinase A): 14.6 µM (active)

COc1ccc(C(=O)Nc2scc(-c3ccc(Cl)cc3Cl)c2C(N)=O)cc1
AC50 (Cytochrome P450 3A4): 28.2 µM (inconclusive)

c1cncc(-c2nc(NCCCN3CCOCC3)c3c4c(sc3n2)CCC4)c1
EC50 [1]: 2.58 µM (active) | EC50 [2]: > 60 µM (not active)

COc1ccc(-n2c(=O)cnc3cnc(Oc4ccccc4)nc32)cc1
AC50 (Cytochrome P450 2C19; read-out: AC50): 39.8 µM (inconclusive)

Cc1cn(CC[C@H](N)C(=O)O)c(=O)[nH]c1=O
AC50 (Cytochrome P450 2C19): inconclusive

O=S(=O)(NC(=NCc1ccccc1)c1ccccc1)c1ccc(Br)cc1
EC50 (Streptococcus): > 150 µM (not active) | EC50 [4]: > 150 µM (not active) | EC50 (Streptokinase A): 33.4 µM (active)

CC(C)(C)[Si](C)(C)c1c2c(nc3ccc(OCc4ccccc4)cc13)-c1cccc(=O)n1C2
AC50 (Cytochrome P450 2C9): 20 µM (inconclusive)

CCCCCCC(=O)NN/C=C1/C(=O)NC(=S)N(CCCC)C1=O
EC50 (Streptococcus): 49.3 µM (active) | EC50 [4]: 5.51 µM (active) | EC50 (Streptokinase A): > 150 µM (not active)

Cc1noc(C)c1C(=O)N1CCC2(CCCN(Cc3nccs3)C2)CC1
AC50 (Cytochrome P450 3A4): 12.6 µM (inconclusive)

Fc1ccc(NC(=S)N2CCn3cccc3C2c2cccnc2)cc1 (stereo not drawn)
EC50 [1]: 0.229 µM (active) | EC50 [2]: > 60 µM (not active)

COc1ccc(S(=O)(=O)N2Cc3ccccc3CC2C(=O)Nc2nccs2)cc1 (stereo not drawn)
AC50 (Cytochrome P450 3A4): 3.55 µM (active)

CCc1ccccc1N1CN(Cc2ccco2)CNC1=S
EC50 [3]: > 53 µM (inactive)

COc1ccc2c(c1)CCCC21NC(=O)N(CC(N)=O)C1=O (stereo not drawn)
AC50 (Cytochrome P450 2C19; read-out: AC50): 39.8 µM (inconclusive)

CC1(C)CC2CC(C)(CN2C(=O)c2ccc([N+](=O)[O-])cc2[N+](=O)[O-])C1 (stereo not drawn)
EC50 [1]: 0.955 µM (active) | EC50 [2]: > 60 µM (not active)

Cn1cccc1C(=O)N1CCC2(CCCN(c3ccncc3)C2)CC1
AC50 (Cytochrome P450 2C9): 25.1 µM (inconclusive)

Fc1ccc(COc2ccccc2CNCc2ccncc2)cc1
EC50 [1]: 2.14 µM (active)

CCS(=O)(=O)N1CCN(c2ccc(C(=O)NC3C4CC5CC(C4)CC3C5)cc2[N+](=O)[O-])CC1 (stereo not drawn)
EC50 [1]: 2.32 µM (active) | EC50 [2]: > 30 µM (not active)

Cc1nc2cnc(N3CCOCC3)nc2n(C2CC2)c1=O
AC50 (Cytochrome P450 3A4): 15.8 µM (inconclusive)

CCC1(CC)C(=O)N(Cc2ccccc2)C(=O)N(Cc2ccccc2)C1=O
EC50 [1]: 1.71 µM (active) | EC50 [2]: > 30 µM (not active)

C=CCNC(=O)c1cccn1-c1ccsc1C(=O)OC
AC50 (Cytochrome P450 3A4): 14.1 µM (inconclusive)

CCCC(=O)Nc1nc(-c2ccc3c(c2)CCN3S(C)(=O)=O)cs1
AC50 (Cytochrome P450 3A4): 7.94 µM (inconclusive)

CN(C(=O)Cc1c(C(=O)O)n(C)c2ccccc12)c1ccc(F)cc1
EC50 (Streptococcus): > 150 µM (not active) | EC50 [4]: > 150 µM (not active) | EC50 (Streptokinase A): > 150 µM (not active)

COc1ccc2c(CC#N)c[nH]c2c1
EC50 [3]: > 53 µM (inactive)

COC(=O)NC/C=C\c1nc(CC/C=C\C(=O)O[C@H]2C[C@H]3CC(=O)O[C@@H](/C=C\CC(C)C)C[C@@H]4CC[C@H](C)[C@H](C[C@@H](OC)C[C@H](C2)O3)O4)co1
AC50 (Cytochrome P450 2C19): inconclusive

COc1ccc(NC(=O)c2cccc(Cn3cc(Br)c([N+](=O)[O-])n3)c2)c(C)c1
EC50 [1]: 0.32 µM (active) | EC50 [2]: 9.14 µM (active)

O=C(COc1ccccc1)N1CCN(c2nnc(-c3ccccc3)c3ccccc23)CC1
EC50 [1]: 1.77 µM (active) | EC50 [2]: > 60 µM (not active)

CC(=O)N1CCC[C@@]2(CCN(c3ccncc3)C2)C1
AC50 (Cytochrome P450 3A4): 25.1 µM (inconclusive)

Cc1ncsc1CCCl [CLOMETHIAZOLE]
AC50 (Cytochrome P450 2C9): 2.51 µM (inconclusive)

CCC1(C)CC(=O)NC(=O)C1 [BEMEGRIDE]
AC50 (Cytochrome P450 2C19): inconclusive

Cc1ccc(NS(=O)(=O)c2cc([N+](=O)[O-])ccc2NN=C(S)Nc2cccc(Cl)c2)c(C)c1
EC50 (Streptococcus): 2.37 µM (active) | EC50 [4]: 0.833 µM (active)

CCOC(=O)C1=C(N)c2ccccc2CC1C1CCCC1 (stereo not drawn)
EC50 (Streptococcus): 11.9 µM (active) | EC50 [4]: 7.81 µM (active) | EC50 (Streptokinase A): 19.3 µM (active)

O=c1c(-c2ccc(F)cc2)nc2cnc(N3CCOCC3)nc2n1Cc1cccs1
AC50 (Cytochrome P450 3A4): 15.8 µM (inconclusive)

Cc1ccc(S(=O)(=O)NC2=NC(=O)/C(=C/c3cccnc3)S2)cc1
AC50 (Cytochrome P450 3A4): 0.891 µM (inconclusive)

CN=C(S)Nc1ccc2nc(C)c(C)nc2c1
AC50 (Cytochrome P450 2C19; read-out: AC50): 39.8 µM (inconclusive) | AC50 (Cytochrome P450 3A4): 17.8 µM (inconclusive)

COc1ccc(NC(=O)C(OC(=O)c2cnc(C)cn2)c2ccccc2)cc1Cl (stereo not drawn)
EC50 (Streptococcus): > 150 µM (not active) | EC50 [4]: 4.66 µM (active) | EC50 (Streptokinase A): > 150 µM (not active)

COc1ccc(Cc2noc(CN3CCN(Cc4cccc(Cl)c4)CC3)n2)cc1OC
EC50 [1]: 0.788 µM (active) | EC50 [2]: > 30 µM (not active)

CCc1ccc(S(=O)(=O)NCC2(N3CCOCC3)CCCCC2)cc1
EC50 [3]: 6.83 µM (active)

CCOc1ccc(NC(=O)CCSc2nc3c(c(CC)c2C#N)C(=O)CC(C)(C)C3)cc1
EC50 [1]: 2.94 µM (active) | EC50 [2]: > 60 µM (inconclusive)

Cc1noc(C)c1-c1nccc(N(C)Cc2ccco2)n1
AC50 (Cytochrome P450 3A4): 25.1 µM (inconclusive)

Cn1c(S)nnc1CNS(=O)(=O)c1ccc(F)cc1
AC50 (Cytochrome P450 2C19; read-out: AC50): 39.8 µM (inconclusive)

Cc1cc2c(NC(=O)Nc3ccc(C(F)(F)F)cc3)cccc2nn1
EC50 [1]: 4.55 µM (active) | EC50 [2]: > 60 µM (not active)

CN1CCN(c2oc(COc3ccc(-c4ccccc4)cc3)nc2C#N)CC1
EC50 [1]: 0.226 µM (active) | EC50 [2]: > 60 µM (not active)

COc1cccc(-c2cc(C(=O)NCC3CCCO3)c3cc(Br)cc(C)c3n2)c1 (stereo not drawn)
EC50 (Streptococcus): > 150 µM (not active) | EC50 [4]: > 150 µM (not active) | EC50 (Streptokinase A): > 150 µM (not active)

C=CCC[C@H](Cc1ccc(F)cc1)C(=O)OC[C@H](Cc1c[nH]c2ccccc12)NC(=O)[C@@H](CC=C)CC(=O)NCCO
EC50 [3]: 12.8 µM (active)

CN(CCOc1ccccc1)CC(O)COCc1ccccc1F (stereo not drawn)
EC50 [1]: 0.526 µM (active) | EC50 [2]: > 60 µM (not active)

O=C(Nc1nnc(C2CC2)s1)c1ccncc1
AC50 (Cytochrome P450 3A4): 14.1 µM (inconclusive)
